Patent publication US10457709B2, “Antimicrobial peptides, their variants and uses” (priority 2015, dated 2019)
Ends that are not written are not given here.

Key:
human erythrocytes = type: cell-based
Procedure: In hemolysis assays, the ability of peptides at 128 μg/ml concentration to lyse human erythrocytes to release hemoglobin was measured. The peptides described here preferably have low hemolytic activity (0.2 to 3.8% hemolysis) in mammal body. […] These peptides are useful as antimicrobial drugs as they show little or no side effects at concentrations needed to kill bacteria.
Minimum inhibition concentrations (MICs) were tested by microbroth dilution method and Chain 104, 105 and 109 inhibited the growth of Escherichia coli (ATCC 25922), Staphylococcus aureus (ATCC 25923), Klebsiella pneumoniae (ATCC 10031) and Pseudomonas aeruginosa (ATCC 27853) between 1-8 μg/ml respectively (Tables 3a, 3b and 3c). The membranolytic activities of the peptides were tested by measuring the release of hemoglobin from erythrocytes of fresh blood donated by voluntiers. Hemoglobin levels were determined spectrometrically by taking OD at 540 nm by following the protocol of Schmidtchen et al., 2011.

[1] = system: Staphylococcus aureus (ATCC 25923); assay: microbe, parasite or virus in culture; type: cell-based; settings: ATCC 25923
Procedure: (§1) Minimum inhibition concentrations (MICs) were determined against Escherichia coli (ATCC 25922), Staphylococcus aureus (ATCC 25923), Klebsiella pneumoniae (ATCC 10031) and Pseudomonas aeruginosa (ATCC 27853). Also clinical strains of E. coli, K. pneumoniae, E. cloacae, P. aeruginosa, Serratia marcescens, Proteus mirabilis, S. pneumoniae, Acinetobacter baumannii, A. johnsonii and S. aureus were used for MICs assays. Additionally, clinical strains of yeast including Candida albicans, C. glabrata, C. parapsilosis and C. quillermondiae were used. The susceptibility of these microorganisms to Chain peptides were determined using micro broth dilution assay. Colonies of the respective microorganism from Muller Hinton (MH) agar plates incubated overnight were suspended in MH broth media and final concentration of microorganism was adjusted to 5.0×10^5 cfu/ml. An aliquot of 10 μl of each Chain peptide, or gentamicin, tetracycline as reference antibiotics were added in differing concentrations along with 90 μl of bacterial suspension to 96 well polypropylene plates and incubated at 37° C. for 20 to 24 hours. Concentrations of Chain peptides and reference antibiotics ranged from 0.125 to 128 μg/ml and the MICs were recorded as the lowest concentration with no visual growth of bacteria. Similarly, antifungal MICs were tested in Potato dextrose broth.

[2] = system: Escherichia coli (ATCC 25922); assay: microbe, parasite or virus in culture; type: cell-based; settings: ATCC 25922
Procedure: as §1

[3] = system: Klebsiella pneumoniae (ATCC 10031); assay: microbe, parasite or virus in culture; type: cell-based; settings: ATCC 10031
Procedure: as §1

[4] = system: Pseudomonas aeruginosa (ATCC 27853); assay: microbe, parasite or virus in culture; type: cell-based; settings: ATCC 27853
Procedure: as §1

[5] = up to 45° C. for over 14 days; radial diffusion assay
Procedure: FIG. 8a. […] Antibacterial activity was tested by aliquoting 20 μg of peptides incubated at different temperature and activity was measured by zone of inhibition. Peptides at −20° C. served as control.
(§2) FIG. 8b. Thermostability of the chain peptides 201 (A-D) and 204 (E-H) tested at various temperatures over a period of 14 days by radial diffusion assay. Antibacterial activity was tested by aliquoting 20 μg of peptides incubated at different temperature and activity was measured by zone of inhibition. Peptides at −20° C. served as control.
as §2, with “8c.” for “8b.”, “306” for “201”, “308” for “204”
(§3) Thermal stability was evaluated by diluting peptides to the concentration of 2 mg/ml in PBS buffer (pH 7.4) and incubating at different temperatures, such as +4° C., 25° C. (RT), 37° C. and 45° C., peptides stored at −20° C. were used as control. After each time interval, 100 μl (2 mg/ml) of peptides were taken and stored at −20° C. for radial diffusion assay to determine the antibacterial activity (FIG. 8). Peptides were also tested by diluting them at different pH values starting from pH 4 to 9. The effect of NaCl on the antimicrobial activity was tested by adding different concentrations (50, 100 and 200 mM) of NaCl to MH medium and the minimum inhibitory concentrations were tested against 4 ATCC bacterial strains.

[6] = pH 4 to 9; radial diffusion assay
Procedure: FIG. 9a. pH stability of chain peptides 104 and 105 was determined by radial diffusion assay (RDA). Different pH ranging from 4-9 was used to check the zone of inhibition.
FIG. 9b. pH stability of chain peptides 201 and 204 was determined by radial diffusion assay (RDA). Different pH ranging from 4-9 was used to check the zone of inhibition.
FIG. 9c. pH stability of chain peptides 306 and 308 was determined by radial diffusion assay (RDA). Different pH ranging from 4-9 was used to check the zone of inhibition.
as §3

[7] = system: MRSA strains (S. aureus COL); assay: MIC, synergistic activity with Ertapenem (4 μg/ml); type: cell-based, Staphylococcus aureus; settings: S. aureus COL, synergistic activity with 4 μg/ml Ertapenem
Procedure: as §1
(§4) Peptides Chain 104, Chain 105, Chain 201, Chain 308, Chain 310 were tested against antibiotic-sensitive strains of S. aureus RN4220 and methicillin resistant strains of S. aureus COL (MRSA). Chain peptides comprising of either L- or D-form amino acids were tested against these bacteria, and the D-form peptides were found have better activity compared to L-form (Table 6). Synergistic activity of chain peptides along with Ertapenem (4 μg/ml) was tested to know whether it will influence the activity against MRSA strains. […] Chain 310 has the best antibacterial activity against the MRSA strains with a MIC of 0.06 & 0.03 μg/ml along with Ertapenem (4 μg/ml) for both forms of L and D-peptides (Table 6).

S. aureus RN4220 = type: cell-based, Staphylococcus aureus; settings: antibiotic sensitive strain S. aureus RN4220
Procedure: as §1, §4

S. aureus COL (MRSA) = type: cell-based, Staphylococcus aureus
Procedure: as §1, §4

Sequence | Side effects to humans as tested by hemolysis assay (human erythrocytes) | Minimum inhibitory concentration, Staphylococcus aureus (ATCC 25923) [1] [µg/mL] | Minimum inhibitory concentration, Escherichia coli (ATCC 25922) [2] [µg/mL] | Minimum inhibitory concentration, Klebsiella pneumoniae (ATCC 10031) [3] [µg/mL] | Minimum inhibitory concentration, Pseudomonas aeruginosa (ATCC 27853) [4] [µg/mL] | Thermostability (antibacterial activity retained) [5] | pH stability (antibacterial activity retained) [6] | Minimum inhibitory concentration (MIC), S. aureus COL + 4 μg/ml Ertapenem [7] [µg/mL] | Minimum inhibitory concentration (MIC), S. aureus RN4220 (S. aureus RN4220) [µg/mL] | Minimum inhibitory concentration (MIC), S. aureus COL (MRSA) (S. aureus COL (MRSA)) [µg/mL]
KRKWRWLFKKL [Chain310] | little side effects | 8 | 4 | 16 | 1 |  |  |  |  | 
KWIVWRWRFKR [Chain201] | little side effects | 4 | 2 | 8 | 8 | not hindered | not hindered |  |  | 
RKWRAMIRLHAKRLRK [Chain104] | little side effects |  |  |  |  | not hindered | not hindered |  |  | 
RKWRAMIRLHAKWLRK [Chain105] | little side effects |  |  |  |  | not hindered | not hindered |  |  | 
RKWRAMIRLHAKWLRK [Compound 105] |  |  |  |  |  |  |  | 0.5 | >64 | >64
RLKRWRLFRKR [Chain306] |  | 2 | 8 | >128 | 64 | not hindered | not hindered |  |  | 
RLKWFLLFRKR [Chain308] | little side effects | 4 | 1 | 4 | 2 | not hindered | not hindered |  |  | 
RLKWFLLFRKR [Compound 308] |  |  |  |  |  |  |  | 0.5 | >64 | >64
RLKWFWLFRKR [Chain307] | little side effects | 4 | 8 | 16 | 1 |  |  |  |  | 
RRLIWRRFKWLR [Chain204] | little side effects | 16 | 2 | 32 | 4 | not hindered | not hindered |  |  | 
WWRLHAKWKLW [Chain109] | little side effects |  |  |  |  |  |  |  |  | 
